Data set [1] relates to Ehrlich carcinoma. Nature of the data set: Antitumor effect, survival of tumor-inoculated mice. The class given is in vivo, ICR mice. Conditions: intraperitoneally, once a day for 10 days.
The test system of data set [2] is Staphylococcus epidermidis ATCC 12228. Nature of the data set: MIC, antibacterial activity (agar culture). The class given is cell-based. Conditions: ATCC12228, 37° C., 18-20 hours, Mueller-Hinton agar, read-out: Minimum inhibitory concentration MIC.
Data set [3] concerns Piricularia oryzae IAM 5016. Description: microbe, parasite or virus in culture. In kind it is cell-based. Conditions: 120 h; read-out: Minimum inhibitory concentration MIC.
Data set [4] is described as follows: physchem. The class given is physicochemical. Conditions: 10 μg/ml in dimethylsulfoxide/physiological saline; for Percentage remainder: 0 hr.; for remaining at 3 h / remaining at 6 h / remaining at 24 h / remaining at 48 h / remaining at 72 h: read-out: Percentage remainder. As for the experimental part:
The stability of some Fredericamycin A derivatives and Fredericamycin A in their aqueous solutions were tested in accordance with the following procedures.
The test compounds were individually dissolved in dimethylsulfoxide, followed by dilution of the resulting solutions with physiological saline to adjust the final concentrations of the test compounds and Fredericamycin to 10 μg/ml respectively. The thus-prepared test solutions were then subjected to high performance liquid chromatography after predetermined time intervals to measure the percentage remainders of the test compounds.

The test system of data set [5] is mouse leukemia P-388. Nature of the data set: Antitumor effect, survival of tumor-inoculated mice. The class given is in vivo, CDF1 mice. Conditions: intraperitoneally, once a day for 10 days. The method, then:
(§1) Antitumor effects of some Fredericamycin A derivatives against Ehrlich carcinoma, Meth-A fibrosarcoma and mouse leukemia P-388 were tested in accordance with the following procedures. Antitumor effects against Ehrlich carcinoma and Meth-A fibrosarcoma are expressed by percentage of mean survival time of test and control animals. Antitumor effects against P-388 are expressed by percentage of median survival time of test and control animals.
(§2) (ii) Meth-A fibrosarcoma and mouse leukemia P-388:
(§3) 1×10^6 tumor cells were inoculated to CDF1 mice (.male., Charles River Japan Inc.) intraperitoneally. Each tested compound was given intraperitoneally once a day for 10 days from 1 day after tumor inoculation.

The subject of data set [6] is Meth-A fibrosarcoma. The data set is described as above. In kind it is in vivo, CDF1 mice. Conditions: intraperitoneally, once a day for 10 days. The method, then: as §1, §2, §3
The mark [7] stands for this setting: Mus musculus, ip, 240 h, 0.5 mg/kg/day, read-out: percentage of mean survival time of test and control animals.
Where [8] appears, read: Mus musculus, ip, 240 h, 1.0 mg/kg/day, read-out: percentage of mean survival time of test and control animals.
[9] abbreviates: Mus musculus, ip, 240 h, 2.0 mg/kg/day, read-out: percentage of mean survival time of test and control animals.

Converted amounts (≈) assume the structure as drawn. A value given as a limit tells only on which side of the number the result lay.

Turning to `C/C=C/C=C/c1cc2cc3c(c(O)c2c(=O)[nH]1)C1(CC3)C(=O)c2c(OC(=O)CC(C)C)c3c(c(OC(=O)CC(C)C)c2C1=O)C(=O)C(OC)=CC3=O` (stereo not drawn) [Compound 2, Fredericamycin A diisovalerate], in data set [1] (setting [7]), the response vs control in vivo at 0.5 mg/kg/day is 120%. Moreover, the response vs control in vivo at 1 mg/kg/day in data set [1] (setting [8]) was more than 168%. For the same compound, the response vs control in vivo at 2 mg/kg/day in data set [1] (setting [9]) is more than 229%.
`C/C=C/C=C/c1cc2cc3c(c(O)c2c(=O)[nH]1)C1(CC3)C(=O)c2c(OC(=O)c3ccc(C)cc3)c3c(c(OC(=O)c4ccc(C)cc4)c2C1=O)C(=O)C(OC)=CC3=O` (stereo not drawn) [Compound 3, Fredericamycin A di-p-methylbenzoate]: the MIC in data set [2] is 25 µg/mL (≈ 32.2 µM); in data set [3], 6.25 µg/mL (≈ 8.06 µM).
For `C/C=C/C=C/c1cc2cc3c(c(O)c2c(=O)[nH]1)C1(CC3)C(=O)c2c(OC(=O)CC)c3c(c(OC(=O)CC)c2C1=O)C(=O)C(OC)=CC3=O` (stereo not drawn) [Compound 4], the results for the “percentage of mean survival time of test and control animals” value in data set [1] (0.5 mg/kg/day), in data set [1] (1.0 mg/kg/day) and in data set [1] (2.0 mg/kg/day) were “over 282%”, “over 288%” and 50%, respectively.
`C/C=C/C=C/c1cc2cc3c(c(O)c2c(=O)[nH]1)C1(CC3)C(=O)c2c(OC(=O)CCCCC)c3c(c(OC(=O)CCCCC)c2C1=O)C(=O)C(OC)=CC3=O` (stereo not drawn) [Compound 5]: the MIC in data set [2] is 25 µg/mL (≈ 34 µM). The MIC in data set [3] came to 0.39 µg/mL (≈ 0.53 µM). Moreover, the “percentage of mean survival time of test and control animals” value in data set [1] (0.5 mg/kg/day) is “over 247%”. Besides, the “percentage of mean survival time of test and control animals” value in data set [1] (1.0 mg/kg/day) is “over 229%”. The “percentage of mean survival time of test and control animals” value in data set [1] (2.0 mg/kg/day) is recorded as “over 256%”. In data set [4], the Percentage remainder worked out at 100%, the remaining at 3 h amounted to 93.2%, the remaining at 6 h turned out to be 88% and the remaining at 24 h stood at 67.6%. Moreover, in data set [4], the remaining at 48 h amounted to 57.8% and the remaining at 72 h was determined as 47.9%.
With `C/C=C/C=C/c1cc2cc3c(c(O)c2c(=O)[nH]1)C1(CC3)C(=O)c2c(OC(=O)CCCCCCCCCCC)c3c(c(OC(=O)CCCCCCCCCCC)c2C1=O)C(=O)C(OC)=CC3=O` (stereo not drawn) [Compound 7], the results for the MIC in data set [2] and in data set [3] were 25 µg/mL (≈ 27.7 µM) and 1.56 µg/mL (≈ 1.73 µM), respectively. Moreover, the figures for the “percentage of mean survival time of test and control animals” value in data set [1] (0.5 mg/kg/day), in data set [1] (1.0 mg/kg/day) and in data set [1] (2.0 mg/kg/day) were 104%, 96% and 194%, respectively.
Turning to `C/C=C/C=C/c1cc2cc3c(c(O)c2c(=O)[nH]1)C1(CC3)C(=O)c2c(OC(=O)c3ccccc3)c3c(c(OC(=O)c4ccccc4)c2C1=O)C(=O)C(OC)=CC3=O` (stereo not drawn) [Compound 8], the response vs control in vivo at 0.5 mg/kg/day in data set [1] (setting [7]) came to 166%. For the same compound, the response vs control in vivo at 1 mg/kg/day in data set [1] (setting [8]) is more than 199%. Besides, the response vs control in vivo at 2 mg/kg/day in data set [1] (setting [9]) turned out to be 97%.
For the compound `C/C=C/C=C/c1cc2cc3c(c(O)c2c(=O)[nH]1)C1(CC3)C(=O)c2c(OC(=O)c3ccc(OC)cc3)c3c(c(OC(=O)c4ccc(OC)cc4)c2C1=O)C(=O)C(OC)=CC3=O` (stereo not drawn) [Compound 10], the results for the MIC in data set [2] and in data set [3] were 12.5 µg/mL (≈ 15.5 µM) and 1.56 µg/mL (≈ 1.93 µM), respectively. The response vs control in vivo at 0.5 mg/kg/day in data set [1] (setting [7]) is 105%. In addition, in data set [1] (setting [8]), the response vs control in vivo at 1 mg/kg/day came out at 171%. Further, the response vs control in vivo at 2 mg/kg/day in data set [1] (setting [9]) was more than 202%.
In the case of `C/C=C/C=C/c1cc2cc3c(c(O)c2c(=O)[nH]1)C1(CC3)C(=O)c2c(OC(=O)c3ccc(Cl)cc3)c3c(c(OC(=O)c4ccc(Cl)cc4)c2C1=O)C(=O)C(OC)=CC3=O` (stereo not drawn) [Compound 11], in data set [1] (setting [7]), the response vs control in vivo at 0.5 mg/kg/day is more than 139%. Also, in data set [1] (setting [8]), the response vs control in vivo at 1 mg/kg/day is more than 198%. Besides, in data set [1] (setting [9]), the response vs control in vivo at 2 mg/kg/day was more than 260%.
Regarding `CCCCCc1cc2cc3c(c(O)c2c(=O)[nH]1)C1(CC3)C(=O)c2c(c(OC(C)=O)c3c(OC(C)=O)c(OC)cc(OC(C)=O)c3c2OC(C)=O)C1=O` (stereo not drawn) [Compound 12, leucotetraacetyltetrahydrofredericamycin A], the response vs control in vivo at 2 mg/kg/day in data set [1] (setting [9]) is 116%. Also, the response vs control in vivo at 4 mg/kg/day in data set [1] (Mus musculus, ip, 240 h, 4.0 mg/kg/day, read-out: percentage of mean survival time of test and control animals) came out at 136%. The response vs control in vivo at 8 mg/kg/day in data set [1] (Mus musculus, ip, 240 h, 8.0 mg/kg/day, read-out: percentage of mean survival time of test and control animals) was more than 203%. The “percentage of median survival time of test and control animals” value in data set [5] (2.0 mg/kg/day) came out at 142%. Moreover, in data set [5] (4.0 mg/kg/day), the “percentage of median survival time of test and control animals” value was 146%. In data set [5] (8.0 mg/kg/day), the “percentage of median survival time of test and control animals” value came to 152%. Further, in data set [4], the Percentage remainder was determined as 100%, the remaining at 3 h stood at 99%, the remaining at 6 h was 98.3% and the remaining at 24 h was found to be 97.1%. Moreover, in data set [4], the remaining at 48 h came to 95.7% and the remaining at 72 h came out at 94.4%.
For the compound `CCCCCc1cc2cc3c(c(O)c2c(=O)[nH]1)C1(CC3)C(=O)c2c(O)c3c(c(O)c2C1=O)C(=O)C(OC)=CC3=O` (stereo not drawn) [Compound 17, tetrahydrofredericamycin A], the response vs control in vivo at 0.125 mg/kg/day in data set [1] (Mus musculus, ip, 240 h, 0.125 mg/kg/day, read-out: percentage of mean survival time of test and control animals) was found to be 187%. Further, the response vs control in vivo at 0.25 mg/kg/day in data set [1] (Mus musculus, ip, 240 h, 0.25 mg/kg/day, read-out: percentage of mean survival time of test and control animals) came to 248%. In addition, the response vs control in vivo at 0.5 mg/kg/day in data set [1] (setting [7]) is 250%. Moreover, the “percentage of mean survival time of test and control animals” value in data set [6] (0.25 mg/kg/day) is given as 102%; in data set [6] (0.5 mg/kg/day) it was 129%; in data set [6] (1.0 mg/kg/day) it was 164%; in data set [6] (2.0 mg/kg/day), 232%. The “percentage of median survival time of test and control animals” value in data set [5] (2.0 mg/kg/day) is reported as 130%; in data set [5] (4.0 mg/kg/day), 143%; in data set [5] (8.0 mg/kg/day), 152%.
As for `CCCCCCCCCCCC(=O)Oc1c2c(c(OC(=O)CCCCCCCCCCC)c3c1C(=O)C1(CCc4cc5cc(CCCCC)[nH]c(=O)c5c(O)c41)C3=O)C(=O)C(OC)=CC2=O` (stereo not drawn) [Compound 21], in data set [4], the Percentage remainder worked out at 100%, the remaining at 3 h was determined as 95.3%, the remaining at 6 h amounted to 92.2% and the remaining at 24 h amounted to 87.3%. In data set [4], the remaining at 48 h came to 80.5% and the remaining at 72 h is 74.8%.

The values above are taken from patent US4584377A, “Novel Fredericamycin A derivatives” (SS Pharmaceutical Co., Ltd., priority 1983, dated 1986).
